# PMC8071358, “Targeting of the Essential acpP, ftsZ, and rne Genes in Carbapenem-Resistant Acinetobacter baumannii by Antisense PNA Precision Antibacterials” (Biomedicines, 2021)
# {(KFF)3K-eg1} = H-(KFF)3K peptide (K lysine, F phenylalanine) with eg1 linker (8-amino-3,6-dioxaoctanoyl), on the PNA N terminus (5' end); {NH2} = C-terminal amide
# Key:
# Format in all cases: cell-based, Acinetobacter baumannii
# CRAB strain AC46 = experiment: BPP-PNA MIC, broth microdilution
# Experimental: (§1) MIC values were determined by broth microdilution according to standard protocols with a few modifications. […] Then, 180 µL bacterial solutions were dispensed into a low-bind 96-well plate (Thermo-Scientific, Roskilde, Denmark) along with 20 µL of BPP-PNA compound (BPP-PNA was serially diluted 2-fold from 16 to 0.5 µM in a 96-well plate). The plate was incubated in a Tecan Genios plate reader (GMI, Minnesota, Ramsey, USA) at 37 °C for 18 h with linear shaking, OD was measured every 20 min at 595 nm. […] The minimum bactericidal concentration (MBC) values were determined by plating 10 µL samples from the wells with no visible turbidity onto Mueller–Hinton agar plates. The MBC is determined the lowest concentration of BPP-PNA that reduces the viability of the initial bacterial inoculum by ≥99.9% (3-log reduction in CFU/mL). A minimum of two independent experiments (biological replicates) of the assay were conducted, and two technical replicates were used in each experiment for each bacterium, compound, and concentration.
# A. baumannii SSI1104 = experiment: BPP-PNA MIC, broth microdilution
# Experimental: as §1
# CRAB strains = experiment: BPP-PNA MIC/MBC summarised over the panel of strains
# Experimental: (§2) MIC values were determined by broth microdilution according to standard protocols with a few modifications. An overnight bacterial cell culture was diluted to approximately 5 × 10^5 CFU/mL in non-cation-adjusted Muller Hinton Broth (MHB). Then, 180 µL bacterial solutions were dispensed into a low-bind 96-well plate (Thermo-Scientific, Roskilde, Denmark) along with 20 µL of BPP-PNA compound (BPP-PNA was serially diluted 2-fold from 16 to 0.5 µM in a 96-well plate). The plate was incubated in a Tecan Genios plate reader (GMI, Minnesota, Ramsey, USA) at 37 °C for 18 h with linear shaking, OD was measured every 20 min at 595 nm. […] The minimum bactericidal concentration (MBC) values were determined by plating 10 µL samples from the wells with no visible turbidity onto Mueller–Hinton agar plates. The MBC is determined the lowest concentration of BPP-PNA that reduces the viability of the initial bacterial inoculum by ≥99.9% (3-log reduction in CFU/mL). A minimum of two independent experiments (biological replicates) of the assay were conducted, and two technical replicates were used in each experiment for each bacterium, compound, and concentration.
# CRAB strain AC8 = experiment: BPP-PNA MIC, broth microdilution; conditions: MHB without cation (Oxoid); 37 °C, 18 h
# Experimental: as §2
# CRAB strain AC7 = experiment: BPP-PNA MIC, broth microdilution; conditions: MHB without cation (Oxoid); 37 °C, 18 h
# Experimental: as §2
# CRAB strain AC5 = experiment: BPP-PNA MIC, broth microdilution; conditions: MHB without cation (Oxoid); 37 °C, 18 h
# Experimental: as §2
# CRAB strain AC3 = experiment: BPP-PNA MIC, broth microdilution; conditions: MHB without cation (Oxoid); 37 °C, 18 h
# Experimental: as §2
# CRAB strain AC2 = experiment: BPP-PNA MIC, broth microdilution
# Experimental: as §2
# CRAB strain AC4 = experiment: BPP-PNA MIC, broth microdilution; conditions: MHB without cation (Oxoid); 37 °C, 18 h
# Experimental: as §2
# CRAB strain AC44 = experiment: BPP-PNA MIC, broth microdilution
# Experimental: as §2
# CRAB strain AC6 = experiment: BPP-PNA MIC, broth microdilution; conditions: MHB without cation (Oxoid); 37 °C, 18 h
# Experimental: as §2
# CRAB strain AC9 = experiment: BPP-PNA MIC, broth microdilution; conditions: MHB without cation (Oxoid); 37 °C, 18 h
# Experimental: as §2
# A. baumannii ATCC 19606 = experiment: BPP-PNA MIC, broth microdilution; conditions: 37 °C, 18 h
# Experimental: as §2
# CRAB strain AC1 = experiment: BPP-PNA MIC, broth microdilution; conditions: MHB without cation (Oxoid); 37 °C, 18 h
# Experimental: as §2
# [1] = tested on: antibiotic resistant clinical isolate AC46; experiment: Minimum bactericidal concentration (MBC) assay; conditions: AC46, 24 h incubation, 1–8 μM
# Experimental: as §2
# [2] = MHB without cation (Oxoid), 37 °C, 18 h
# [3] = Table 4 (anti-rne), brand of medium not given, non-cation-adjusted MHB by method
substance,measurement,setting,value
"H-(KFF)3K-eg1-GAGTCCAGGAC-NH2 (all peptide nucleic acid (PNA), 5' {(KFF)3K-eg1}, 3' {NH2}) [PNA 5615, anti-ftsZ mismatch control of 5612]","MIC, AC46",CRAB strain AC46; [2],16 µM
same,"MIC, SSI 1104",A. baumannii SSI1104; [2],16 µM
same,MIC50,"CRAB strains; over the CRAB and ATCC 19606 strains of Table 3, MHB without cation (Oxoid)",16 µM
same,"MIC, AC8",CRAB strain AC8,16 µM
same,"MIC, AC7",CRAB strain AC7,16 µM
same,"MIC, AC5",CRAB strain AC5,16 µM
same,"MIC, AC3",CRAB strain AC3,8 µM
same,"MIC, AC2",CRAB strain AC2; [2],16 µM
same,"MIC, AC4",CRAB strain AC4,16 µM
same,"MIC, AC44",CRAB strain AC44; [2],16 µM
same,"MIC, AC6",CRAB strain AC6,8 µM
same,"MIC, AC9",CRAB strain AC9,16 µM
same,"MIC, ATCC 19606",A. baumannii ATCC 19606; MHB without cation (Oxoid),8 µM
same,"MIC, AC1",CRAB strain AC1,16 µM
"H-(KFF)3K-eg1-TTTCATGGGTG-NH2 (antisense; N-terminal (KFF)3K-eg1 peptide, C-terminal amide, backbone not given here, further chemistry not given here) [PNA 5656, anti-rne peptide-PNA conjugate, match, −5 to +6]","MIC, AC46",CRAB strain AC46; [3],2 µM
same,"MIC, SSI 1104",A. baumannii SSI1104; [3],2 µM
same,concentration with bactericidal activity against carbapenem-resistant A. baumannii,CRAB strains,4 µM
same,bactericidal concentration relative to MIC,CRAB strains; CRAB strains,1–2 × MIC
same,MIC (complete growth inhibition) over the CRAB strains tested,CRAB strains; several A. baumannii strains,2 µM
same,MIC of match PNA lower than mismatch control (mismatch discrimination),CRAB strains; strains of Table 2 (5612 vs 5615) or Table 4 (5656 vs 5822),four-fold
same,"MIC, AC2",CRAB strain AC2; [3],2 µM
same,"MIC, AC44",CRAB strain AC44; [3],2 µM
same,"MIC, ATCC 19606",A. baumannii ATCC 19606; [3],2 µM
same,CFU reduction in MBC assay compared to mismatch control,[1],very significant CFU reduction
